Data from ChEMBL document CHEMBL6087451, “Design, Synthesis, and Biological Evaluation of 2-Arylaminopyrimidine Derivatives as Dual Cathepsin L and JAK Inhibitors for the Treatment of Acute Lung Injury” (J Med Chem, 2025).
The source made the active and inactive calls. The rule behind the calls is not given here.

Key:
[1] = target: T1, Tyrosine-protein kinase JAK3 (Homo sapiens, UniProt P52333); test: Inhibition of JAK3 (unknown origin) using TK-biotin as substrate incubated for 30 mins in presence of ATP by HTRF assay
T1 sequence (P52333 whole entry): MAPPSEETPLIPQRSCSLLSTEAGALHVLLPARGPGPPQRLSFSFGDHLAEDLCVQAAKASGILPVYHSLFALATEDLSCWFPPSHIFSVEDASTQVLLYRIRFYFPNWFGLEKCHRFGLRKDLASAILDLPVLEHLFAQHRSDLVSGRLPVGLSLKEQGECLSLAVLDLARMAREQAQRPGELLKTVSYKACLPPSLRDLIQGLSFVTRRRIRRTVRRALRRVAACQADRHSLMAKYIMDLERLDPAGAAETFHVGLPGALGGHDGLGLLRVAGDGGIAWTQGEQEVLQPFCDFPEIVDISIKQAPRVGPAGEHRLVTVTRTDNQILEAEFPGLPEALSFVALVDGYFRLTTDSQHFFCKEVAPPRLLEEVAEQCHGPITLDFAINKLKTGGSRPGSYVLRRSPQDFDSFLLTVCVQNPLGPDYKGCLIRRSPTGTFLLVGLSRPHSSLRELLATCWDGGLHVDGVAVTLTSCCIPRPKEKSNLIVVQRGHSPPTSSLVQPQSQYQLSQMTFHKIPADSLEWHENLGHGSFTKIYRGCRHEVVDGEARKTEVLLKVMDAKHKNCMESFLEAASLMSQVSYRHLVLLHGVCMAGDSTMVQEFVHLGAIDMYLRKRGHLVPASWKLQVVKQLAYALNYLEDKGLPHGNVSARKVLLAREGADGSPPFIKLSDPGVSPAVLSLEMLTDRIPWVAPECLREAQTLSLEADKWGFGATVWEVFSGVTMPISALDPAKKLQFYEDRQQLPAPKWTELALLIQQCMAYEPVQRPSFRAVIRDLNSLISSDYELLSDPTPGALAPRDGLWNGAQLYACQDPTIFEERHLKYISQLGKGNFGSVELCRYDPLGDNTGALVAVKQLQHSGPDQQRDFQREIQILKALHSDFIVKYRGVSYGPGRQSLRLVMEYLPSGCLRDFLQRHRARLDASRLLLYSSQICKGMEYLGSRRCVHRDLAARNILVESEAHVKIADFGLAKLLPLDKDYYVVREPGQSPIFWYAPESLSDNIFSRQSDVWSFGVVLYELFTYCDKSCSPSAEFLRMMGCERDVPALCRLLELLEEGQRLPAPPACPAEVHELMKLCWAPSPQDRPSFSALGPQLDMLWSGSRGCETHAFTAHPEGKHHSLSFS

[2] = tested on: RAW264.7; test: Anti-inflammatory activity against mouse RAW264.7 cells assessed as inhibition of LPS-induced IL-1beta level at 50 to 500 nM; assay type: functional, cell-based; conditions: dose 50-500 nM
[3] = AUC (0 to t) in Sprague-Dawley rat at 3.5 mg/kg, iv measured for 24 hrs by LC-MS/MS analysis; assay type: ADME, organism-based; conditions: in vivo
[4] = cells; conditions: Homo sapiens, HBE
Description: Anti-inflammatory activity against HBE cells assessed as inhibition of LPS-induced IL-6 level pretreated for 30 mins followed by LPS treatment for 24 hrs by ELISA

[5] = Cmax in Sprague-Dawley rat at 3.5 mg/kg, iv measured for 24 hrs by LC-MS/MS analysis; assay type: ADME, organism-based; conditions: in vivo
[6] = tested on: Mus musculus; test: (§1) Anti-inflammatory activity in C57BL/6 mouse model of LPS-induced acute lung injury assessed as decrease in disruption of endothelial cell structures in lung at 10 mg/kg, ip treated for 3 days followed by LPS treatment after 1 hr post-compound administration on fourth day measured after 18 hrs post-LPS treatment by H and E staining based analysis; assay type: functional, organism-based; conditions: time 91.0 hrs
[7] = tested on: RAW264.7; test: Anti-inflammatory activity against mouse RAW264.7 cells assessed as inhibition of LPS-induced IL-1beta mRNA level at 50 to 500 nM by RT-qPCR analysis; assay type: functional, cell-based; conditions: dose 50-500 nM
[8] = target: Procathepsin L (Homo sapiens, UniProt P07711); test: Induction of thermal stabilization of pro-CTSL in protein lysate extracted from human THP-1 cells pretreated for 6 hrs followed by heat exposure at 37 to 62 degreeC for 3 mins by CETSA; assay type: subcellular; conditions: time 363.0 min
Chain of Procathepsin L (P07711 114-333 limits assumed): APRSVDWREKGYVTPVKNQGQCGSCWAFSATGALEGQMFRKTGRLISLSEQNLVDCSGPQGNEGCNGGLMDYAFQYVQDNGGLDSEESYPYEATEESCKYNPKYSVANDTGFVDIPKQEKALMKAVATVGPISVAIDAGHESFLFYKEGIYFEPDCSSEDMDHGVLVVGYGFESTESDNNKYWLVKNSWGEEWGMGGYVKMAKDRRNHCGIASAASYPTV

[9] = Half life in Sprague-Dawley rat at 3.5 mg/kg, ip measured for 24 hrs by LC-MS/MS analysis; assay type: ADME, organism-based; conditions: in vivo
[10] = tested on: Mus musculus; test: as §1, with “IL-1beta mRNA level” for “disruption of endothelial cell structures”, “RT-qPCR” for “H and E staining based”; assay type: functional, organism-based; conditions: time 91.0 hrs
[11] = Cmax in Sprague-Dawley rat at 3.5 mg/kg, po measured for 24 hrs by LC-MS/MS analysis; assay type: ADME, organism-based; conditions: in vivo
[12] = target: Non-receptor tyrosine-protein kinase TYK2 (Homo sapiens, UniProt P29597); test: Inhibition of TYK2 (unknown origin) using TK-biotin as substrate incubated for 120 mins in presence of ATP by HTRF assay
Chain of Non-receptor tyrosine-protein kinase TYK2 (P29597 whole entry): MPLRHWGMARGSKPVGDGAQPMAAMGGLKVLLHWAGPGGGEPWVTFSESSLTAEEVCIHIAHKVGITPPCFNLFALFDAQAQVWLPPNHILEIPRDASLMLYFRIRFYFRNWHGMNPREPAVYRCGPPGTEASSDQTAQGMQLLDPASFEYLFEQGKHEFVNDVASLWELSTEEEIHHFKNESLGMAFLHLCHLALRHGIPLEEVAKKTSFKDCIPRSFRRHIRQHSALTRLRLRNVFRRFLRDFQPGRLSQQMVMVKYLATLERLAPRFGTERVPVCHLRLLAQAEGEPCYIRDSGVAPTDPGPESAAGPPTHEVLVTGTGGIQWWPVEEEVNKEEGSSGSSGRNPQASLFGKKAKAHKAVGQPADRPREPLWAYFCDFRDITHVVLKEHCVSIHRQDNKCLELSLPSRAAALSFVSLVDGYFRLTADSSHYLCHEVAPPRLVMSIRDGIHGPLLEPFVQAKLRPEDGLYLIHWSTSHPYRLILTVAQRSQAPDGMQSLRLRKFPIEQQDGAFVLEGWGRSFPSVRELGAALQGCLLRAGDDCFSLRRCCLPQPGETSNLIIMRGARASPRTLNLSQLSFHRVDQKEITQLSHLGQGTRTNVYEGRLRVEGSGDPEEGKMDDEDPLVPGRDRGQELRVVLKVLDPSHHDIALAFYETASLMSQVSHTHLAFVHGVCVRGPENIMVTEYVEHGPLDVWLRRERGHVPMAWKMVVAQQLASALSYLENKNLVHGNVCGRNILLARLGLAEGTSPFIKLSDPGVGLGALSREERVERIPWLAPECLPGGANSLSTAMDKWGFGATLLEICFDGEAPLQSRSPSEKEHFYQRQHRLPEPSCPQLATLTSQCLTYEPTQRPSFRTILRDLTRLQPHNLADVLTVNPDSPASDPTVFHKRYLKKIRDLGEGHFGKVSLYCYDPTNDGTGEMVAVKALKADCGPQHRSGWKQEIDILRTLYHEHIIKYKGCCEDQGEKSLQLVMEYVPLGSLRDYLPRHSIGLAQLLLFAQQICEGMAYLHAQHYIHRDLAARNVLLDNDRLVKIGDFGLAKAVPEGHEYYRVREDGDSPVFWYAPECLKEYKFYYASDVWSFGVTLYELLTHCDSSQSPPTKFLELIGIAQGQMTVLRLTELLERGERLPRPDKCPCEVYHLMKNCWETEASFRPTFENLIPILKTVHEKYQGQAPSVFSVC

[13] = tested on: RAW264.7; test: Anti-inflammatory activity against mouse RAW264.7 cells assessed as inhibition of LPS-induced TNF-alpha mRNA level at 50 to 500 nM by RT-qPCR analysis; assay type: functional, cell-based; conditions: dose 50-500 nM
[14] = tested on: Mus musculus; test: as §1, with “inflammatory” for “disruption of endothelial”, “infiltration” for “structures”; assay type: functional, organism-based; conditions: time 91.0 hrs
[15] = tested on: RAW264.7; test: Anti-inflammatory activity against mouse RAW264.7 cells assessed as inhibition of LPS-induced IL-1beta level
[16] = tested on: Mus musculus; test: as §1, with “alveolar hemorrhage” for “disruption of endothelial cell structures”; assay type: functional, organism-based; conditions: time 91.0 hrs
[17] = AUC (0 to infinity) in Sprague-Dawley rat at 3.5 mg/kg, po measured for 24 hrs by LC-MS/MS analysis; assay type: ADME, organism-based; conditions: in vivo
[18] = tested on: HBE; test: Anti-inflammatory activity against HBE cells assessed as inhibition of LPS-induced p-p65 level pretreated for 30 mis followed by LPS treatment for 16 hrs by Western blot analysis; assay type: functional, cell-based; conditions: Homo sapiens, dose 0.5-5 µM, time 16.5 hrs
[19] = tested on: RAW264.7; test: Anti-inflammatory activity against mouse RAW264.7 cells assessed as inhibition of LPS-induced p38 phosphorylation at 50 to 500 nM by Western blot analysis; assay type: functional, cell-based; conditions: dose 50-500 nM
[20] = tested on: Mus musculus; test: Anti-inflammatory activity in C57BL/6 mouse model of LPS-induced acute lung injury assessed as decrease in wet to dry ratio in lung at 10 mg/kg, ip treated for 3 days followed by LPS treatment after 1 hr post-compound administration on fourth day measured after 18 hrs post-LPS treatment; assay type: functional, organism-based; conditions: time 91.0 hrs
[21] = tested on: RAW264.7; test: Anti-inflammatory activity against mouse RAW264.7 cells transfected with CTSL siRNA assessed as inhibition of LPS-induced IL-6 level by Western blot analysis; assay type: functional, cell-based
[22] = tested on: Mus musculus; test: Anti-inflammatory activity in C57BL/6 mouse model of LPS-induced acute lung injury assessed as decrease in number of total cells in BALF at 10 mg/kg, ip treated for 3 days followed by LPS treatment after 1 hr post-compound administration on fourth day measured after 18 hrs post-LPS treatment; assay type: functional, organism-based; conditions: time 91.0 hrs

For `Cl.Cn1cc(-c2ccnc(Nc3cccc(N)c3)n2)c2ccccc21`, the IC50 [1] was 27.3 nM, the inhibition [2] was “Active” and the AUC(0-t) at 24 h [3] was 633 ng·h/mL. The IC50 [4] was 614 nM, the Cmax [5] was 655 ng/mL and the Activity [6] was “Active”. For the same compound, the inhibition [7] was “Active”, the Activity [8] was “Active” and the half-life [9] was 4.73 h. The Activity [10] was “Active”, the Cmax [11] was 65.2 ng/mL and the IC50 [12] was 173 nM. For the same compound, the inhibition [13] was “Active”, the Activity [14] was “Active” and the IC50 [15] was 91.2 nM. For the same compound, the Activity [16] was “Active”, the AUC(0-inf) [17] was 159 ng·h/mL and the inhibition [18] was “Dose-dependent-effect”. The inhibition [19] was “Active; Result Indicates Compound Suppresses Mapk Pathway”, the Activity [20] was “Active” and the inhibition [21] was “inactive”. The Activity [22] was “Active”.
